The term AUC(0-t) denotes the area under the concentration-time curve up to a stated or last time point. Low readings indicate low exposure, high ones high exposure. Usually Cmax stands for the maximum level reached in the sampled fluid or tissue. Broadly, the Tmax is the time at which the peak concentration occurs. In general, bioavailability refers to dose-corrected exposure relative to a reference, in per cent. A high value points to good availability.

The results in this text go back to patent US20260256811A1, “Humoral Immune Activators for the Treatment of Humoral Immunosuppressed Pathologies, Cancer and Infectious Disease and Humoral Immune Suppressors for the Treatment of Inflammatory Diseases” (Navrogen, Inc., priority 2022, published 2026).

The target of one data set is T1, CD16a-158F FcR (Homo sapiens, UniProt P08637).
T1 construct: host or cells: Jurkat (JKT-CD16a luciferase reporter line)
T1 sequence (P08637 17-254): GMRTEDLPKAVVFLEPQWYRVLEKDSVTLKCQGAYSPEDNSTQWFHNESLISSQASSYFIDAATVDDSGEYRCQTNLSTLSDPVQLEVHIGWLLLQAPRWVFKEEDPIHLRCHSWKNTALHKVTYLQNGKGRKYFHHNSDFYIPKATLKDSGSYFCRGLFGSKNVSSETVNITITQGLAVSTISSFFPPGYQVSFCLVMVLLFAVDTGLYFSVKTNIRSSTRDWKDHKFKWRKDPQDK
T1 sequence (P20963 22-164 partner): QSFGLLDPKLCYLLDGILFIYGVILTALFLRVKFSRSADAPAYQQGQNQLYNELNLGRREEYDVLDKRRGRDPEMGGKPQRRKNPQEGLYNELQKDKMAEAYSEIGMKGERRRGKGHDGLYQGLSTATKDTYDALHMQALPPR
Briefly: Jurkat-CD16a-158F-luciferase (JKT-CD16a) reporter bioassay. In kind it is cell-based.

A further data set addresses T2, human CD16a-158F (Homo sapiens, UniProt P08637).
T2 construct: made in house
Nature of the data set: ELISA: CD16a-158F-HIS binding to coated pertuzumab (PTZ). The conditions noted are these: for enhancement of CD16a-158F binding to IgG (PTZ): 10 μM, P<0.005; for suppression of CD16a-PTZ interaction: 2.5 μg/mL PTZ coat, human CD16a-158F-HIS probe, P≤0.005. As for the experimental part:
(§1) Analysis of Compound 2 derived analogs described in Example 3 were conducted testing for enhanced CD16a FcR binding to IgG via ELISA. Briefly, 96 well plates were coated with PTZ as described above and probed with CD16a-158F-HIS in the presence of 10 μM parental Compound 2 and R5/R6 Compound analogs 22-34 to assay for those mediating enhanced CD16a-IgG binding. […] To further evaluate the impact of enhanced binding these compounds were tested for enhancing human PBMC ADCC as described above. Human breast cancer SKBR3 cells were plated in black 96-well microplates at 5,000 cell/well in R7.5 and grown overnight at 37° C. in 5% CO2. The next day 50,000 PBMCs in R1 medium were added per well in the presence of 1 or 5 μM of each compound or ethanol (EtOH) vehicle control in triplicates. Wells treated with EtOH and PTZ without PBMCs were used as a negative control. Cultures were incubated for 24 hours at 37° C. in 5% CO2 in triplicate. After incubation, target cell viability was quantified via Cell Titer-GLO (Promega) using a Varioskan plate reader. Units are shown as relative luminescent units (RLU).
Analogs of this class may be useful for suppressing inflammatory diseases. […] The teaching here has shown that the Compound 1, 2, 3 and 4 scaffolds can be utilized to add chemical groups that can enhance their activity for CD16a stimulation. Here we provide an example of how these scaffolds can be used to develop CD16a antagonists to suppress CD16a-IgG interactions and downstream activities, including production of proinflammatory cytokines such as IFNγ. FIGS. 10 and 13 show ELISA binding assays as described in Example 1. Briefly, 96-well clear microplates were coated with 2.5 μg/mL pertuzumab (PTZ) IgG or HSA as negative control (no PTZ). Wells were then probed with human CD16a-158F-HIS with or without compounds to monitor CD16a-PTZ binding. […] These scaffolds embody a primary inventive step that is taught within this application.
Background: In an ELISA, binding on a coated surface is turned into a signal by an enzyme label.

The nature of data set [1]: Metabolic stability in mouse liver microsomes. In kind it is in vitro ADME. Here is the method: (§2) We next tested Compounds 2, 26, 27 and 33 for metabolic stability using human and mouse microsomes. For each test compound, samples were diluted a final concentration of 2 μg/mL in 25 mM potassium phosphate buffer with liver microsomes of each species at a final concentration of 0.5 mg/mL. The enzyme reaction was initiated by the addition of NADPH reagent at a final concentration of 1 mM. For negative control samples, NADPH reagent was not added. Samples were incubated at 37° C. on a 50-RPM orbital shaker, and an aliquot was removed at pre-determined timepoints at 0, 5, 10, 15, 30, and 60 minutes. Samples were then precipitated with three volume of acetonitrile containing propranolol as an internal standard, and centrifuged for 10 min at 2000 g then analyzed by LC/MS/MS. Note that compounds undergo only Phase I metabolism in liver microsomes in the presence of NADPH cofactors. Data interpretation of results are based on percent parent compound remaining relative to 0-minute incubation samples, from which the elimination half-life is calculated based on the natural log of % compound remaining vs. time plot. The following parameters were calculated to estimate the compound's in vitro metabolic stability: Cmp=concentration of microsomal proteins (mg/mL); t1/2=the half-life (min), where t1/2 is equal to 0.693/slope; CLint=the intrinsic hepatic clearance (μL/min/mg), where CLint is equal to 0.693/(t1/2×Cmp).
Background: Liver microsomes are vesicles of endoplasmic reticulum, rich in cytochrome P450 enzymes.

A short description of data set [2]: Metabolic stability in human liver microsomes. In kind it is in vitro ADME. As for the experimental part:
as §2

A further data set deals with NK cells. Nature of the data set: Tolerability and NK cell activation markers after repeated oral dosing in mice. In kind it is in vivo, mouse. As for the experimental part:
To determine the tolerability and ability to systemically activate NK cells in mice, we tested orally administered Compound 27 to mice. Six mice were randomized into treatment groups vehicle control (water) and 100 mg/kg Compound 27 all suspended in 0.5% hydroxypropyl methylcellulose. Mice were dosed orally on days 1-5, 7, 9, 11, 13, 15 and sacrificed on day 16 at which time plasma was collected. Tolerability was based on Day 1 bodyweight of each mouse. The maximum tolerated dose is determined as weight loss exceeding 20% or >10% of animals in a group die.
To confirm that oral administration of Compound 27 activated NK cells, the NK activation markers IFNγ and TNFα were measured from day 16 harvested plasma via ELISA using methods described in Example 1. […] These scaffolds embody a primary inventive step that is taught within this application.

A further data set relates to SKBR3 cells. Nature of the data set: ADCC killing of SKBR3 cells via pertuzumab with human PBMCs. Format: cell-based. The conditions noted are these: 1 or 5 μM, PTZ, 24 hours, P<0.0000075 over Compound 2. Here is the method:
as §1

A further data set is described as follows: in vivo. The conditions noted are these: mouse, po, 100 mg/kg. As for the experimental part: To further determine the pharmacologic properties of Compound 27, we tested for its oral bioavailability and ability to activate NK cells systemically in mice as determined measuring NK cell activation markers IFNγ and TNFα. For oral bioavailability, mice were fed a standard laboratory rodent diet and housed in individual cages on a 12-hour light and 12-hour dark cycle with at […] and relative humidity at 50±20%. Animals are fasted overnight before dosing, with food returned after 6 hours at which time blood samples are obtained. Water is provided ad libitum throughout the study. Compound 27 was prepared by grinding its precipitated powder into fine particles and suspended in 0.5% hydroxypropyl methylcellulose (HPMC) in water. Three animals were dosed via gavage needle for oral administration at 100 mg/kg (10 mL/kg). Blood samples (25-30 μL per sample) were taken via the saphenous vein at 5, 15, 30 minutes, and 1, 2, 4, 6, 8, 24 hours after administration. Additional blood samples (150-200 μL per sample) were taken at 24 hours for cytokine analysis. Blood samples were collected in Greiner MiniCollect K2EDTA tubes, placed on ice, and within 30 minutes, centrifuged at 15,000 g for 5 min to obtain plasma samples with additional 50-100 μLs of each plasma sample collected at 24 hours. All plasma samples were stored at −70° C. until analysis.
Bioanalysis of plasma samples were conducted as follows. Plasma samples were prepared using three volumes of acetonitrile containing internal standard to one volume of plasma to precipitate proteins. Samples were centrifuged at 3000 g for 10 minutes and supernatant removed for analysis by LC-MS/MS. Calibration standards and quality controls were made by preparation of a 1 mg/mL stock solution and subsequently a series of working solutions in methanol:water (1:1, v/v), which were spiked into blank plasma to yield a series of calibration standard samples ranging from 1 ng/ml to 10 μg/mL and quality control samples at three concentration levels (low, middle and high). All incurred plasma samples were treated identically to the calibration standards and quality control samples. LC-MS/MS analysis was performed utilizing multiple reaction monitoring for detection of characteristic ions for each drug candidate, additional related analytes and internal standard. Plasma concentrations are measured as described above to determine a concentration vs. time profile. The area under the plasma concentration vs time curve (AUC) is calculated using the linear trapezoidal method, known by those skilled in the art. Fitting of the data to obtain pharmacokinetic (PK) parameters was carried out using non-compartmental analysis.
Key PK parameters reported following extravascular administration are as follows: terminal half-life t1/2, maximum plasma concentration Cmax, time to reach maximum plasma concentration tmax, area under the plasma concentration vs. time curve AUC, mean residence time MRT, and bioavailability F. All parameters are expressed for individual animals as well as mean, standard deviation, and coefficient of variation and are commonly known by those skilled in the art.

T2 sequence (P08637 with tags, fused parts or gaps): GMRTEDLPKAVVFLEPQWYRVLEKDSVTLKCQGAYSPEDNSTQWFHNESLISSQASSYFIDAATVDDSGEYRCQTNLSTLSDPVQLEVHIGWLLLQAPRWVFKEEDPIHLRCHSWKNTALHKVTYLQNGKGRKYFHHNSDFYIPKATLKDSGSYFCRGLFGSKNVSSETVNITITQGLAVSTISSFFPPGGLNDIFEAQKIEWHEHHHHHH

Consider `CC(C)=CCC[C@@H](C)[C@H]1CC[C@@]2(C)C3=C(CC[C@]12C)[C@@]1(C)CC[C@H](O)C(C)(C)[C@@H]1CC3` [Compound 1, lanosta-8,24-dien-3β-ol], for which, at CD16a-158F FcR (OV-CD20 target cells plus 2.5 μg/mL rituximab, 12-18 hours, vs vehicle or no compound), the “JKT-CD16a activation (luciferase RLU) in the presence of IgG” value is “significant enhancement”. Moreover, the “JKT-CD16a-158F FcR activation (luciferase RLU) in the absence of IgG antibody” value on CD16a-158F FcR (OV-CD20 target cells without antibody, lower levels than with IgG) is “stimulated”.
Regarding `CC(C)NCCC[C@@H](C)[C@H]1CC[C@@]2(C)C3CC[C@H]4C(C)(C)[C@@H](O)CC[C@@]45C[C@@]35CC[C@]12C` (stereo partly drawn) [Compound 26], the “enhancement of CD16a-158F binding to IgG (PTZ)” value (from here on “enhancement … (PTZ)”) at human CD16a-158F is “significantly enhanced”. Moreover, the microsomal CLint at 2 μg/mL in data set [1] (mouse liver microsomes 0.5 mg/mL, 2 μg/mL compound, NADPH, read-out: CLint (μL/min/mg protein) mouse) worked out at 2.16 µL/min/mg; in data set [2] (human liver microsomes 0.5 mg/mL, 2 μg/mL compound, NADPH, read-out: CLint (μL/min/mg protein) human), 3.04 µL/min/mg. Also, the half-life at 2 μg/mL was found to be 641 min in data set [1] (mouse liver microsomes 0.5 mg/mL, 2 μg/mL compound, NADPH, read-out: T½ (minutes) mouse) and 456 min in data set [2] (human liver microsomes 0.5 mg/mL, 2 μg/mL compound, NADPH, read-out: T½ (minutes) human).
Consider `C[C@H](CCCN1CCCCC1)[C@H]1CC[C@@]2(C)C3CC[C@H]4C(C)(C)[C@@H](O)CC[C@@]45C[C@@]35CC[C@]12C` (stereo partly drawn) [Compound 27], for which the “tolerability of multiple oral dosing (health, body weight)” value in the data set on NK cells (100 mg/kg oral on days 1-5, 7, 9, 11, 13, 15) is given as “well tolerated”. For the same compound, in the data set with NK cells (100 mg/kg oral, day 16 plasma, ELISA, vs vehicle, P<0.0056), the “plasma NK cell activation markers IFNγ and TNFα” value was “upregulated”. Also, the “enhancement of ADCC killing of SKBR3 cells” value in the data set with SKBR3 cells was “enhanced ADCC most significantly”. In “in vivo”, the area under the curve AUC(0-t) turned out to be 7750 ng·h/mL, the peak concentration (Cmax) came out at 511 ng/mL, the Tmax was at most 6 h and the bioavailability is 11.7%. For the same compound, in the data set “in vivo”, the concentration at 24 hours came out at 242 ng/mL and the half-life was 18.3 h. Also, the “enhancement … (PTZ)” value at human CD16a-158F was “significantly enhanced”. In data set [1] (mouse, microsomes), this compound showed a half-life at 2 μg/mL of 610 min and a microsomal CLint at 2 μg/mL of 2.27 µL/min/mg. In data set [2] (human, microsomes), the half-life at 2 μg/mL worked out at 701 min and the microsomal CLint at 2 μg/mL amounted to 1.98 µL/min/mg.
On to `C[C@H](CCC(=O)O)[C@H]1CC[C@@]2(C)C3CC[C@H]4C(C)(C)[C@@H](O)CC[C@@]45C[C@@]35CC[C@]12C` (stereo partly drawn) [Compound 29], for which, on human CD16a-158F, the “suppression of CD16a-PTZ interaction” value is on record as ~ 49%.
The same measure, in the same setting: in the case of `C[C@H](CCCO)[C@H]1CC[C@@]2(C)C3CC[C@H]4C(C)(C)[C@@H](O)CC[C@@]45C[C@@]35CC[C@]12C` (stereo partly drawn) [Compound 31] it was ~ 49%; in that of `C[C@H](CCCNCCOCCO)[C@H]1CC[C@@]2(C)C3CC[C@H]4C(C)(C)[C@@H](O)CC[C@@]45C[C@@]35CC[C@]12C` (stereo partly drawn) [Compound 32], ~ 49%.
As for `C[C@H](CCCNCCOCCOCCOCCOCCOCCOCCOCCOCCOCCOCCOCCO)[C@H]1CC[C@@]2(C)C3CC[C@H]4C(C)(C)[C@@H](O)CC[C@@]45C[C@@]35CC[C@]12C` (stereo partly drawn) [Compound 33], in the data set on SKBR3 cells, the “enhancement of ADCC killing of SKBR3 cells” value is recorded as “enhanced ADCC most significantly”. Moreover, at human CD16a-158F, the “enhancement … (PTZ)” value is reported as “significantly enhanced”. In data set [1] (mouse, microsomes), this compound registered a half-life at 2 μg/mL of 65.8 min and a microsomal CLint at 2 μg/mL of 21.1 µL/min/mg. In data set [2] (human, microsomes), this compound came in with a half-life at 2 μg/mL of 64.5 min and a microsomal CLint at 2 μg/mL of 21.5 µL/min/mg.
